Measured values: ChEMBL document CHEMBL1201862, “PubChem BioAssay data set” (2004)
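Step 1: Grow cells in 96-well plates. Step 2: Expose to compound for 48 hours at 5 concentrations. Step 3: Interpolate endpoints linearly; if unreached, use highest concentration. GI50 = concentration required for 50% inhibition of growth.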 Calls of active or inactive are those of the source. Rule as the data show it: active = GI50 up to about 1.1 µM and inactive = higher.

Key:
Test in all cases: DTP human tumour cell line panel, 48 h
COLO 205 = test system: COLO 205
MOLT-4 = test system: MOLT-4
M14 = test system: M14
SN12C = test system: SN12C
OVCAR-4 = test system: OVCAR-4
HT-29 = test system: HT-29
MCF7 = test system: MCF7
A498 = test system: A498
SF-539 = test system: SF-539
HOP-62 = test system: HOP-62
HCT-116 = test system: HCT-116
T47D = test system: T47D
NCI/ADR-RES = test system: NCI/ADR-RES
PC-3 = test system: PC-3
SK-MEL-5 = test system: SK-MEL-5
SK-MEL-2 = test system: SK-MEL-2
TK-10 = test system: TK-10
OVCAR-3 = test system: OVCAR-3
DU-145 = test system: DU-145
RXF 393 = test system: RXF 393
SW-620 = test system: SW-620
MDA-N = test system: MDA-N
K562 = test system: K562
HCT-15 = test system: HCT-15
CAKI-1 = test system: CAKI-1
SK-MEL-28 = test system: SK-MEL-28
MDA-MB-231 = test system: MDA-MB-231
OVCAR-8 = test system: OVCAR-8
SNB-19 = test system: SNB-19
A549 = test system: A549
KM12 = test system: KM12
HOP-92 = test system: HOP-92
UO-31 = test system: UO-31
OVCAR-5 = test system: OVCAR-5
NCI-H522 = test system: NCI-H522
786-0 = test system: 786-0
MDA-MB-435 = test system: MDA-MB-435
SF-268 = test system: SF-268
Malme-3M = test system: Malme-3M
SK-OV-3 = test system: SK-OV-3
RPMI-8226 = test system: RPMI-8226
U-251 = test system: U-251
NCI-H23 = test system: NCI-H23
ACHN = test system: ACHN
SF-295 = test system: SF-295
UACC-62 = test system: UACC-62
LOX IMVI = test system: LOX IMVI
UACC-257 = test system: UACC-257
Hs-578T = test system: Hs-578T
HCC 2998 = test system: HCC 2998
EKVX = test system: EKVX
NCI-H460 = test system: NCI-H460
SR = test system: SR
IGROV-1 = test system: IGROV-1
CCRF-CEM = test system: CCRF-CEM
SNB-75 = test system: SNB-75
HL-60 = test system: HL-60

With `Cc1cn(C2CC(N(O)C(N)=O)C(CO)O2)c(=O)[nH]c1=O` (stereo not drawn) the GI50 (COLO 205) was > 100 µM (inactive), the GI50 (MOLT-4) was > 100 µM (inactive) and the GI50 (M14) was > 100 µM (inactive). The GI50 (SN12C) was > 100 µM (inactive), the GI50 (OVCAR-4) was > 100 µM (inactive) and the GI50 (HT-29) was > 100 µM (inactive). For the same compound, the GI50 (MCF7) was > 100 µM (inactive), the GI50 (A498) was > 100 µM (inactive) and the GI50 (SF-539) was > 100 µM (inactive). The GI50 (HOP-62) was > 100 µM (inactive), the GI50 (HCT-116) was > 100 µM (inactive) and the GI50 (T47D) was > 100 µM (inactive). For the same compound, the GI50 (NCI/ADR-RES) was > 100 µM (inactive), the GI50 (PC-3) was > 100 µM (inactive) and the GI50 (SK-MEL-5) was > 100 µM (inactive). The GI50 (SK-MEL-2) was > 100 µM (inactive), the GI50 (TK-10) was > 100 µM (inactive) and the GI50 (OVCAR-3) was > 100 µM (inactive). For the same compound, the GI50 (DU-145) was > 100 µM (inactive), the GI50 (RXF 393) was > 100 µM (inactive) and the GI50 (SW-620) was > 100 µM (inactive). The GI50 (MDA-N) was > 100 µM (inactive), the GI50 (K562) was > 100 µM (inactive) and the GI50 (HCT-15) was over 100 µM. The GI50 (CAKI-1) was > 100 µM (inactive), the GI50 (SK-MEL-28) was > 100 µM (inactive) and the GI50 (MDA-MB-231) was > 100 µM (inactive). For the same compound, the GI50 (OVCAR-8) was > 100 µM (inactive), the GI50 (SNB-19) was > 100 µM (inactive) and the GI50 (A549) was > 100 µM (inactive). For the same compound, the GI50 (KM12) was > 100 µM (inactive), the GI50 (HOP-92) was > 100 µM (inactive) and the GI50 (UO-31) was > 100 µM (inactive). For the same compound, the GI50 (OVCAR-5) was > 100 µM (inactive), the GI50 (NCI-H522) was > 100 µM (inactive) and the GI50 (786-0) was > 100 µM (inactive). The GI50 (MDA-MB-435) was > 100 µM (inactive), the GI50 (SF-268) was > 100 µM (inactive) and the GI50 (Malme-3M) was > 100 µM (inactive). For the same compound, the GI50 (SK-OV-3) was > 100 µM (inactive), the GI50 (RPMI-8226) was > 100 µM (inactive) and the GI50 (U-251) was > 100 µM (inactive). For the same compound, the GI50 (NCI-H23) was > 100 µM (inactive), the GI50 (ACHN) was > 100 µM (inactive) and the GI50 (SF-295) was > 100 µM (inactive). The GI50 (UACC-62) was > 100 µM (inactive).
For `COc1ccc(C2c3cc4c(cc3OC(N3CCOCC3)C2C)OCO4)c(OC)c1OC` (stereo not drawn), the GI50 (COLO 205) was 14.6 µM (inactive), the GI50 (LOX IMVI) was 14.5 µM (inactive) and the GI50 (MOLT-4) was 10.6 µM (inactive). For the same compound, the GI50 (M14) was 8.22 µM (inactive), the GI50 (SN12C) was 26.3 µM (inactive) and the GI50 (HT-29) was 14 µM (inactive). The GI50 (MCF7) was 10.9 µM (inactive), the GI50 (SF-539) was 12.6 µM (inactive) and the GI50 (HOP-62) was 26.9 µM (inactive). The GI50 (UACC-257) was 15.9 µM (inactive), the GI50 (HCT-116) was 10.3 µM (inactive) and the GI50 (T47D) was 20.6 µM (inactive). For the same compound, the GI50 (NCI/ADR-RES) was 12.1 µM (inactive), the GI50 (PC-3) was 13.6 µM (inactive) and the GI50 (SK-MEL-5) was 10.1 µM (inactive). For the same compound, the GI50 (SK-MEL-2) was 12.2 µM (inactive), the GI50 (TK-10) was 15.5 µM (inactive) and the GI50 (OVCAR-3) was 11 µM (inactive). The GI50 (Hs-578T) was 2.88 µM (inactive), the GI50 (DU-145) was > 10 µM (inactive) and the GI50 (SW-620) was 11.1 µM (inactive). For the same compound, the GI50 (MDA-N) was 2.45 µM (inactive), the GI50 (K562) was 4.34 µM (inactive) and the GI50 (HCC 2998) was 10.8 µM (inactive). The GI50 (HCT-15) was 6.93 µM, the GI50 (CAKI-1) was 2.51 µM (inactive) and the GI50 (EKVX) was 24.2 µM (inactive). For the same compound, the GI50 (SK-MEL-28) was 14.2 µM (inactive), the GI50 (OVCAR-8) was 24.7 µM (inactive) and the GI50 (NCI-H460) was 20.5 µM (inactive). For the same compound, the GI50 (SNB-19) was 10.7 µM (inactive), the GI50 (A549) was 22.9 µM (inactive) and the GI50 (SR) was 9.06 µM (inactive). For the same compound, the GI50 (IGROV-1) was 15.1 µM (inactive), the GI50 (KM12) was 5.55 µM (inactive) and the GI50 (UO-31) was 6.81 µM (inactive). The GI50 (OVCAR-5) was 17.1 µM (inactive), the GI50 (NCI-H522) was 6.89 µM (inactive) and the GI50 (786-0) was 17.1 µM (inactive). For the same compound, the GI50 (CCRF-CEM) was 13 µM (inactive), the GI50 (MDA-MB-435) was 2.51 µM (inactive) and the GI50 (SF-268) was 17.4 µM (inactive). For the same compound, the GI50 (RPMI-8226) was 13.2 µM (inactive), the GI50 (NCI-H23) was 33.7 µM (inactive) and the GI50 (ACHN) was 16.1 µM (inactive). The GI50 (SF-295) was 5.97 µM (inactive) and the GI50 (UACC-62) was 13.5 µM (inactive).
With `COc1ccc2c3c([nH]c2c1)-c1nc2ccccc2c(=O)n1CC3` the GI50 (COLO 205) was > 25 µM (inactive), the GI50 (MOLT-4) was > 25 µM (inactive) and the GI50 (M14) was > 25 µM (inactive). For the same compound, the GI50 (SN12C) was > 25 µM (inactive), the GI50 (MCF7) was > 25 µM (inactive) and the GI50 (SNB-75) was 13.1 µM (inactive). For the same compound, the GI50 (SF-539) was 14.9 µM (inactive), the GI50 (HOP-62) was > 25 µM (inactive) and the GI50 (UACC-257) was > 25 µM (inactive). For the same compound, the GI50 (HCT-116) was > 25 µM (inactive), the GI50 (T47D) was > 25 µM (inactive) and the GI50 (NCI/ADR-RES) was > 25 µM (inactive). For the same compound, the GI50 (PC-3) was > 25 µM (inactive), the GI50 (SK-MEL-5) was > 25 µM (inactive) and the GI50 (TK-10) was > 25 µM (inactive). For the same compound, the GI50 (SW-620) was > 25 µM (inactive), the GI50 (MDA-N) was > 25 µM (inactive) and the GI50 (K562) was > 25 µM (inactive). For the same compound, the GI50 (HCC 2998) was > 25 µM (inactive), the GI50 (HCT-15) was over 25 µM and the GI50 (EKVX) was > 25 µM (inactive). For the same compound, the GI50 (SK-MEL-28) was > 25 µM (inactive), the GI50 (MDA-MB-231) was > 25 µM (inactive) and the GI50 (OVCAR-8) was > 25 µM (inactive). The GI50 (SNB-19) was > 25 µM (inactive), the GI50 (SR) was > 25 µM (inactive) and the GI50 (IGROV-1) was > 25 µM (inactive). The GI50 (KM12) was > 25 µM (inactive), the GI50 (UO-31) was > 25 µM (inactive) and the GI50 (OVCAR-5) was > 25 µM (inactive). For the same compound, the GI50 (HL-60) was > 25 µM (inactive), the GI50 (NCI-H522) was > 25 µM (inactive) and the GI50 (786-0) was 0.317 µM (active). For the same compound, the GI50 (MDA-MB-435) was > 25 µM (inactive), the GI50 (SF-268) was 21.5 µM (inactive) and the GI50 (SK-OV-3) was > 25 µM (inactive). The GI50 (RPMI-8226) was > 25 µM (inactive), the GI50 (U-251) was > 25 µM (inactive) and the GI50 (ACHN) was > 25 µM (inactive). For the same compound, the GI50 (SF-295) was > 25 µM (inactive).
With `COc1ccc(-c2oc3ccccc3c(=O)c2O)cc1OC` [3-HYDROXY-3',4'-DIMETHOXYFLAVONE] the GI50 (COLO 205) was > 100 µM (inactive), the GI50 (LOX IMVI) was 9.95 µM (inactive) and the GI50 (M14) was > 100 µM (inactive). The GI50 (HT-29) was > 100 µM (inactive), the GI50 (MCF7) was > 100 µM (inactive) and the GI50 (A498) was 6.92 µM (inactive). The GI50 (HOP-62) was 11.2 µM (inactive), the GI50 (UACC-257) was > 100 µM (inactive) and the GI50 (HCT-116) was > 100 µM (inactive). For the same compound, the GI50 (T47D) was 99.5 µM (inactive), the GI50 (NCI/ADR-RES) was 3.77 µM (inactive) and the GI50 (PC-3) was > 100 µM (inactive). The GI50 (SK-MEL-5) was > 100 µM (inactive), the GI50 (TK-10) was 12.3 µM (inactive) and the GI50 (OVCAR-3) was 47.5 µM (inactive). The GI50 (DU-145) was 7.16 µM (inactive), the GI50 (SW-620) was > 100 µM (inactive) and the GI50 (MDA-N) was > 100 µM (inactive). For the same compound, the GI50 (K562) was > 100 µM (inactive), the GI50 (HCT-15) was over 100 µM and the GI50 (CAKI-1) was 55.2 µM (inactive). The GI50 (EKVX) was > 100 µM (inactive), the GI50 (SK-MEL-28) was 25.3 µM (inactive) and the GI50 (MDA-MB-231) was > 100 µM (inactive). For the same compound, the GI50 (NCI-H460) was 4.69 µM (inactive), the GI50 (SNB-19) was 29 µM (inactive) and the GI50 (A549) was > 100 µM (inactive). The GI50 (IGROV-1) was 14.3 µM (inactive), the GI50 (UO-31) was > 100 µM (inactive) and the GI50 (OVCAR-5) was > 100 µM (inactive). For the same compound, the GI50 (NCI-H522) was 4.63 µM (inactive), the GI50 (CCRF-CEM) was 3.81 µM (inactive) and the GI50 (MDA-MB-435) was > 100 µM (inactive). The GI50 (SF-268) was 7.5 µM (inactive), the GI50 (Malme-3M) was > 100 µM (inactive) and the GI50 (SK-OV-3) was 4.81 µM (inactive). The GI50 (U-251) was 4.92 µM (inactive), the GI50 (ACHN) was 10.6 µM (inactive) and the GI50 (SF-295) was 17.4 µM (inactive). For the same compound, the GI50 (UACC-62) was 5.22 µM (inactive).
